The target in data set [1] is T1, Cytochrome P450 3A4 (Homo sapiens, UniProt P08684). The data set is described as follows: Inhibition of CYP3A4 (unknown origin). It is filed as ADME.
Data set [2] relates to Human immunodeficiency virus 1. The data set is described as follows: Antiviral activity against HIV-1 harboring RT Y181C mutant infected in human MT4 cells assessed as protection against virus-induced cytopathic effect incubated for 5 days by MTT assay. The format is functional, organism-based. As to conditions: Human immunodeficiency virus 1, MT4, 120 h. On the technique in general: Damage to the host cells serves as the signal in cytopathic effect assays.

The subject of data set [3] is Human immunodeficiency virus 1. Description: Antiviral activity against HIV-1 harboring RT L100I mutant infected in human MT4 cells assessed as protection against virus-induced cytopathic effect incubated for 5 days by MTT assay. It is filed as functional, organism-based. The conditions noted are these: Human immunodeficiency virus 1, MT4, 120 h.
A short description of data set [4]: Acute toxicity in mouse assessed as apparent pathological damage in brain treated for 14 days by H and E staining based analysis. It is filed as tissue-based. The conditions noted are these: in vivo, 336 h, time 14 day.
Data set [5] in a line: Selectivity index, ratio of CC50 for human MT4 cells to EC50 for wild-type HIV-1 IIIB infected in human MT4 cells. The conditions noted are these: read-out: Ratio CC50/EC50. It is filed as toxicity, cell-based.
In data set [6] the test system is Human immunodeficiency virus 1. The data set is described as follows: Antiviral activity against HIV-1 harboring RT Y188L mutant infected in human MT4 cells assessed as protection against virus-induced cytopathic effect incubated for 5 days by MTT assay. It is filed as functional, organism-based. As to conditions: Human immunodeficiency virus 1, MT4, 120 h.
The nature of data set [7]: Acute toxicity in mouse assessed as apparent pathological damage in kidney treated for 14 days by H and E staining based analysis. The conditions noted are these: in vivo, 336 h, time 14 day.
The target in data set [8] is T1, Cytochrome P450 3A4. The data set is described as follows: Inhibition of CYP3A4 (unknown origin) using midazolam as substrate. The format is ADME.
The nature of data set [9]: Solubility of compound in phosphate buffer at pH 7 by HPLC analysis. The format is physicochemical.
Data set [10] has as its system Human immunodeficiency virus 1. The data set is described as follows: Antiviral activity against HIV-1 harboring RT K103N mutant infected in human MT4 cells assessed as protection against virus-induced cytopathic effect incubated for 5 days by MTT assay. The format is functional, organism-based. As to conditions: Human immunodeficiency virus 1, MT4, 120 h.
For data set [11], the target named is Human immunodeficiency virus type 1 reverse transcriptase (Human immunodeficiency virus 1, UniProt Q72547). The data set is described as follows: Inhibition of recombinant wild-type HIV-1 reverse transcriptase incubated for 40 mins by fluorescence based assay.
Data set [12] in a line: Solubility of compound in phosphate buffer at pH 7.4 by HPLC analysis. It is filed as physicochemical.
Data set [13] is described as follows: Acute toxicity in mouse assessed as animal death treated for 14 days. As to conditions: in vivo, 336 h, time 14 day.
The next data set addresses T2, Cytochrome P450 1A2 (Homo sapiens, UniProt P05177).
T2 sequence (P05177 whole entry): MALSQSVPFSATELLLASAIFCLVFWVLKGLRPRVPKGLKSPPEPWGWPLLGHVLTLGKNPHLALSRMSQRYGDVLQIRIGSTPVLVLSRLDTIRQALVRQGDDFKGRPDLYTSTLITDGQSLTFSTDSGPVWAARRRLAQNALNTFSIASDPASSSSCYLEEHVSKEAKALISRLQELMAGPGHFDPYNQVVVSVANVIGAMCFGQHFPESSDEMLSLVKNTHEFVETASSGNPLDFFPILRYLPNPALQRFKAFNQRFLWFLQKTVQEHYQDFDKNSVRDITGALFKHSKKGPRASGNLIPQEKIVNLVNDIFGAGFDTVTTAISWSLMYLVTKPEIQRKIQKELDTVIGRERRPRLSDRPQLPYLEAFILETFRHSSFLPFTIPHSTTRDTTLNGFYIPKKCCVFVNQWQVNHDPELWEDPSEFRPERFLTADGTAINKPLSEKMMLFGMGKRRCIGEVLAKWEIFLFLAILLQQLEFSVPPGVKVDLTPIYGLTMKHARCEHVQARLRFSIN
The data set is described as follows: Inhibition of CYP1A2 (unknown origin). The format is ADME.

The nature of data set [14]: Acute toxicity in mouse assessed as apparent pathological damage in liver treated for 14 days by H and E staining based analysis. It is filed as tissue-based. As to conditions: in vivo, 336 h, time 14 day.
Data set [15] is described as follows: Solubility of compound in water by HPLC analysis. It is filed as physicochemical.
Data set [16] is described as follows: Solubility of compound in phosphate buffer at pH 2 by HPLC analysis. It is filed as physicochemical.
A short description of data set [17]: Cytotoxicity against human MT4 cells assessed as reduction in cell viability incubated for 5 days by MTT assay. The format is toxicity, cell-based. As to conditions: time 5 day. (In general: Tetrazolium assays rely on reduction of a dye to a coloured formazan, in cell work by metabolically active cells.)
A short description of data set [18]: Acute toxicity in mouse assessed as drug tolerance at 2 g/kg treated for 14 days. The conditions noted are these: in vivo, 2000 mg/kg, 336 h, time 14 day.
Data set [19] can be described thus: Acute toxicity in mouse assessed as apparent pathological damage in heart treated for 14 days by H and E staining based analysis. It is filed as tissue-based. The conditions noted are these: in vivo, 336 h, time 14 day.
Data set [20] deals with T1, Cytochrome P450 3A4. The data set is described as follows: Inhibition of CYP3A4 (unknown origin) using testosterone as substrate. The format is ADME.
Data set [21] is described as follows: Acute toxicity in mouse assessed as change in body weight treated for 14 days. As to conditions: in vivo, 336 h, time 14 day.
For data set [22], the system named is Human immunodeficiency virus 1. The data set is described as follows: Antiviral activity against HIV-1 harboring RT E138K mutant infected in human MT4 cells assessed as protection against virus-induced cytopathic effect incubated for 5 days by MTT assay. The format is functional, organism-based. The conditions noted are these: Human immunodeficiency virus 1, MT4, 120 h.

For data set [23], the system named is Human immunodeficiency virus 1. The data set is described as follows: Antiviral activity against wild-type HIV-1 IIIB infected in human MT4 cells assessed as protection against virus-induced cytopathic effect incubated for 5 days by MTT assay. The conditions noted are these: Human immunodeficiency virus 1, IIIB, MT4, 120 h. It is filed as functional, organism-based.

A short description of data set [24]: Acute toxicity in mouse assessed as toxic symptoms treated for 14 days. The conditions noted are these: in vivo, 336 h, time 14 day.
The nature of data set [25]: Acute toxicity in mouse assessed as apparent pathological damage in lung treated for 14 days by H and E staining based analysis. As to conditions: in vivo, 336 h, time 14 day. The format is tissue-based.
Data set [26] addresses Voltage-gated inwardly rectifying potassium channel KCNH2 (Homo sapiens, UniProt Q12809). Description: Inhibition of hERG expressed in CHO cells. The format is toxicity, cell-based. (Block of hERG is tested as a sign of cardiac risk.)
The target of the next data set is Cytochrome P450 2C9 (Homo sapiens, UniProt P11712). Description: Inhibition of CYP2C9 (unknown origin). It is filed as ADME.
Cytochrome P450 2C9, sequence (P11712 whole entry): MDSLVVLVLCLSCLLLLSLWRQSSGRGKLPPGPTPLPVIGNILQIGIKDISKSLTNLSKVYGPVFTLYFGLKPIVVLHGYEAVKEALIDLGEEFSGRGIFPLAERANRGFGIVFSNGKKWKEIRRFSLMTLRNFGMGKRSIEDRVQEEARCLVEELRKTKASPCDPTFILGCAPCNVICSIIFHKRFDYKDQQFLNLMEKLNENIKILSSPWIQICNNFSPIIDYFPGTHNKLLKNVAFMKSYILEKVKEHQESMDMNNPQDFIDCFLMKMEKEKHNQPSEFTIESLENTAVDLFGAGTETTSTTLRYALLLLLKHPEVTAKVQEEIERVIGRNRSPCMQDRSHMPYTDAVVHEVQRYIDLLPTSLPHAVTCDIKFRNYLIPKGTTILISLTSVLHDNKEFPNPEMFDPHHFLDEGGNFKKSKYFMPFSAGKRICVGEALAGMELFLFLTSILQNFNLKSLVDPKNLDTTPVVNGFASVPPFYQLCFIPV
Another data set has as its target Cytochrome P450 2C19 (Homo sapiens, UniProt P33261). The data set is described as follows: Inhibition of CYP2C19 (unknown origin). The format is ADME.
Data set [27] is described as follows: Acute toxicity in mouse assessed as apparent pathological damage in spleen treated for 14 days by H and E staining based analysis. It is filed as tissue-based. As to conditions: in vivo, 336 h, time 14 day.
For the next data set, the target named is Cytochrome P450 2D6 (Homo sapiens, UniProt P10635). The data set is described as follows: Inhibition of CYP2D6 (unknown origin). The format is ADME.
Cytochrome P450 2D6, sequence (P10635 whole entry): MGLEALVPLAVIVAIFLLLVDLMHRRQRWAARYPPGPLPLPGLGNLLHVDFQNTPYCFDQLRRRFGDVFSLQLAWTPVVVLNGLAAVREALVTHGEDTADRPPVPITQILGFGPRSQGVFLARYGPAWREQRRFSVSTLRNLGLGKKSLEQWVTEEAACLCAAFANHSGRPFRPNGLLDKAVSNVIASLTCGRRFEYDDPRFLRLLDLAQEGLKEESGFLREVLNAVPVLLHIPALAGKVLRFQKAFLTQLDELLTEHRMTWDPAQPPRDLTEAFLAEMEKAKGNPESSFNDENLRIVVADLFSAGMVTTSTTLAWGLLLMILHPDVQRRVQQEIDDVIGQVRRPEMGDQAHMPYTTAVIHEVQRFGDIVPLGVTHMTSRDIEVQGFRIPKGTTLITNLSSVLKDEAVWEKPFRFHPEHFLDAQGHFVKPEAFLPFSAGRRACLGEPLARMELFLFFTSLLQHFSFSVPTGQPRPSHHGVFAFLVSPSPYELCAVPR

pEC50, pIC50: −log10 of the molar value. ≈ marks a conversion by molar mass, not a printed value.

In general, pIC50 refers to the IC50 on a negative log10 scale, so that one unit is a factor of ten. What is called pEC50 is −log10 of the EC50, conventionally taken in molar units. One may read the solubility as the dissolved amount per volume that the medium holds. The term CC50 denotes the concentration that lowers cell viability or growth by half.

T1 sequence (P08684 whole entry): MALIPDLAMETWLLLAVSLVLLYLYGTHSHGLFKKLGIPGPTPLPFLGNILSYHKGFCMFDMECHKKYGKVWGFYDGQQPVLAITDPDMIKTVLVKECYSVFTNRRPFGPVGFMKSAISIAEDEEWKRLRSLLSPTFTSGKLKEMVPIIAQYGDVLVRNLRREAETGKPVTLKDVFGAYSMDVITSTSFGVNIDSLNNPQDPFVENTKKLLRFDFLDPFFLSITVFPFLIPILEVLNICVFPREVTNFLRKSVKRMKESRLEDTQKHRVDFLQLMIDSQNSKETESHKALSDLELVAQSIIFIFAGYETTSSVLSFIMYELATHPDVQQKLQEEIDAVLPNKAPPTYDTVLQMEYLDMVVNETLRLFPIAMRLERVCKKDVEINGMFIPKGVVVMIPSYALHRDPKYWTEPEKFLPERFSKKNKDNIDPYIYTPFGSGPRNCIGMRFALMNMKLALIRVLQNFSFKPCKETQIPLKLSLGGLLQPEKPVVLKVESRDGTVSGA
Voltage-gated inwardly rectifying potassium channel KCNH2, sequence (Q12809 whole entry): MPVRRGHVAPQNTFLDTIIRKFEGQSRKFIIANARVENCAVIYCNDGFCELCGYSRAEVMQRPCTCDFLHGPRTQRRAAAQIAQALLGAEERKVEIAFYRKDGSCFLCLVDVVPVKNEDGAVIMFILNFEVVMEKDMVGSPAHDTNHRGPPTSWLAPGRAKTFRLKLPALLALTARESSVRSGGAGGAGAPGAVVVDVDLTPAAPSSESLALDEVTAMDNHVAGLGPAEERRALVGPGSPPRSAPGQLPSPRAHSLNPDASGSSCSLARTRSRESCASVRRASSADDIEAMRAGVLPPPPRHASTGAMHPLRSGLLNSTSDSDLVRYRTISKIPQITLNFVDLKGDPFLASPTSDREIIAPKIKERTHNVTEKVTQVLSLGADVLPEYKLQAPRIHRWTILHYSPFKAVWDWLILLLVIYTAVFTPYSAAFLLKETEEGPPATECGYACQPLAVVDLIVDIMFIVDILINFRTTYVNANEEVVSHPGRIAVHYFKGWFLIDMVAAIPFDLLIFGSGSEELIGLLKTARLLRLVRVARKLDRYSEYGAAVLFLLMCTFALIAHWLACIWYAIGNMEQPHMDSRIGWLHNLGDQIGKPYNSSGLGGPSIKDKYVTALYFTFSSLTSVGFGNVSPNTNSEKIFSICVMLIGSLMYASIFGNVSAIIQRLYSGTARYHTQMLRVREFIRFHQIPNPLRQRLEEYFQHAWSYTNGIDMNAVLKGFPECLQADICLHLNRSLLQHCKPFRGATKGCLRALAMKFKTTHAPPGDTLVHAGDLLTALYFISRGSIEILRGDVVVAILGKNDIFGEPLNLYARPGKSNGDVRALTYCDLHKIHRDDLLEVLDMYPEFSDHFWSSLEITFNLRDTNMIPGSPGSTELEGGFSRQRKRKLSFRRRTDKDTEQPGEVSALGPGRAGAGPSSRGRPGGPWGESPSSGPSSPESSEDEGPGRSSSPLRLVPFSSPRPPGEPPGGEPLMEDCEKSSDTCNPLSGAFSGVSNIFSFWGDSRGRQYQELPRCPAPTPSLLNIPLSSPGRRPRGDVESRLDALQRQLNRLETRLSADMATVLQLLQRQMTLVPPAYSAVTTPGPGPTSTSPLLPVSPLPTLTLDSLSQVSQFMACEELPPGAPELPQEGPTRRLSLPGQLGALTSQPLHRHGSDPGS
Cytochrome P450 2C19, sequence (P33261 whole entry): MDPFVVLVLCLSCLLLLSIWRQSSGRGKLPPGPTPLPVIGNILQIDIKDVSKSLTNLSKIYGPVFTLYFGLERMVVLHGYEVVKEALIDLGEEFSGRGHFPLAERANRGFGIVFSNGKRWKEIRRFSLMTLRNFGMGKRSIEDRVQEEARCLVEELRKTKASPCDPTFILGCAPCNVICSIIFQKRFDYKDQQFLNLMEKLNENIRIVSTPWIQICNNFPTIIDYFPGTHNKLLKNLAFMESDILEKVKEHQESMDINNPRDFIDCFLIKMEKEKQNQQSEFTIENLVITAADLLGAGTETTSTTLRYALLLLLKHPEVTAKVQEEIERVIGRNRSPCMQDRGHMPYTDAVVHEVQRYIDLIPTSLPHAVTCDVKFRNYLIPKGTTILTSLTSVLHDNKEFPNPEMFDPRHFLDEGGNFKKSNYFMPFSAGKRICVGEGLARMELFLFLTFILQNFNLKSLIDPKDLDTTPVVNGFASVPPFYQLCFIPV

Regarding `C[C@]12CC[C@H]3[C@@H](CCC4=CC(=O)CC[C@@]43C)[C@@H]1CC[C@@H]2O` [TESTOSTERONE], the pIC50 at Cytochrome P450 3A4 [1] was 7.43.

Consider `CCOC(=O)c1cnc(NC2CCN(Cc3ccc(C(=O)NC)cc3)CC2)nc1Oc1c(C)cc(-c2ccc(C#N)cc2)cc1C`, for which the pEC50 in data set [2] is 7.42; in data set [3], 7.54; in data set [6] it was 7.20; in [10] it was 8.15; in data set [22], 7.33; in data set [23] it was 8.22. The Activity result in [4], in [7], in data set [13], in data set [14], in data set [18] and in [19] was “Non-Toxic” throughout. Also, the Activity entry in data set [21], in [24], in data set [25] and in data set [27] was “Non-Toxic” in each case. Further, in data set [5], the selectivity ratio was over 33100. The pIC50 was under 4.30 on Cytochrome P450 3A4 [8]; 6.15 in [11]; under 4.30 on Cytochrome P450 1A2; under 4.30 on Cytochrome P450 3A4 [20]; 4.59 in data set [26]; under 4.30 on Cytochrome P450 2C9. Besides, the pIC50 at Cytochrome P450 2C19 and against Cytochrome P450 2D6 was under 4.30 throughout. The solubility is under 1 µg/mL in [9], under 1 µg/mL in data set [12], under 1 µg/mL in data set [15] and 109 µg/mL (≈ 177 µM) in data set [16]. Also, in [17], the CC50 at 120 h is over 202000 nM.

Consider `CCOC(=O)c1cnc(NC2CCN(Cc3ccc(C(=O)NC)cc3)CC2)nc1Nc1c(C)cc(-c2ccc(C#N)cc2)cc1C.O=P(O)(O)O`, for which the solubility in data set [9] was under 1 µg/mL; in data set [12], under 1 µg/mL; in data set [15], 77.2 µg/mL; in data set [16], 136 µg/mL.

Regarding `Cc1cc(C#N)cc(C)c1Oc1nc(Nc2ccc(C#N)cc2)nc(N)c1Br` [ETRAVIRINE], the pEC50 in data set [6] is 7.62; in data set [22] it was 7.89. Further, the solubility in data set [9] and in data set [12] was under 1 µg/mL in each case. Also, the CC50 at 120 h in data set [17] was over 4610 nM.

Take `Cc1cc(/C=C/C#N)cc(C)c1Nc1ccnc(Nc2ccc(C#N)cc2)n1` [RILPIVIRINE]: the solubility in data set [9] and in data set [12] was under 1 µg/mL throughout. Moreover, the pIC50 in data set [11] is 7.46.

As for `CCOC(=O)c1cnc(NC2CCN(Cc3ccc(C(=O)NC)cc3)CC2)nc1Oc1c(C)cc(-c2ccc(C#N)cc2)cc1C.Cl`, the solubility in [9] was under 1 µg/mL; in data set [12] it was under 1 µg/mL; in [15] it was 336 µg/mL; in [16] it was 103 µg/mL.

In turn, `COc1ccc2c(c1)[C@]13CCCC[C@@H]1[C@H](C2)N(C)CC3` [DEXTROMETHORPHAN] had a pIC50 against Cytochrome P450 2D6 of 6.62.

On to `Br.CCOC(=O)c1cnc(NC2CCN(Cc3ccc(C(=O)NC)cc3)CC2)nc1Nc1c(C)cc(-c2ccc(C#N)cc2)cc1C`, for which the solubility is under 1 µg/mL in data set [9], under 1 µg/mL in data set [12], 91.4 µg/mL in data set [15] and 141 µg/mL in data set [16].

With `CCOC(=O)c1cnc(NC2CCN(Cc3cccc(C#N)c3)CC2)nc1Oc1c(C)cc(-c2ccc(C#N)cc2)cc1C`, the pEC50 is 6.87 in data set [2]; 6.47 in data set [3]; 6.41 in data set [6]; 7.19 in data set [10]; 7.09 in data set [22]; 7.44 in data set [23]. Further, the selectivity ratio in data set [5] worked out at 4960. Also, the pIC50 in data set [11] is 6.28. The CC50 at 120 h in data set [17] turned out to be 178000 nM.

With `CCOC(=O)c1cnc(NC2CCN(Cc3ccc(C(=O)NC)cc3)CC2)nc1Nc1c(C)cc(-c2ccc(C#N)cc2)cc1C.O=S(=O)(O)O`, the solubility was under 1 µg/mL in data set [9], under 1 µg/mL in data set [12], 134 µg/mL in [15] and 147 µg/mL in data set [16].

With `CCOC(=O)c1cnc(NC2CCN(Cc3ccc(S(=O)(=O)NC)cc3)CC2)nc1Oc1c(C)cc(-c2ccc(C#N)cc2)cc1C`, the pEC50 in [2] was 7.14; in [3] it was 7.46; in [6] it was 6.75; in data set [10] it was 7.59; in data set [22], 7.42; in data set [23], 7.62. For the same molecule, the selectivity ratio in data set [5] turned out to be 460. Further, in data set [11], the pIC50 is 6.13. In addition, the CC50 at 120 h in [17] is 10900 nM.

Source of the values: ChEMBL document CHEMBL5608191, “Structure-based discovery of novel piperidine-biphenyl-DAPY derivatives as non-nucleoside reverse transcriptase inhibitors featuring improved potency, safety, and selectivity: From piperazine-biphenyl-DAPYs to piperidine-biphenyl-DAPYs” (Eur J Med Chem, 2024).
